{
  "source": "the supplement of paper PMC6045584",
  "key": {"17-AAG": {"compound": "C=CCNC1=C2C[C@@H](C)C[C@H](OC)[C@H](O)[C@@H](C)/C=C(\\C)[C@H](OC(N)=O)[C@@H](OC)/C=C\\C=C(/C)C(=O)NC(=CC1=O)C2=O [17-AAG]", "assay": "area under dose-response curve of surviving fraction (unscaled, Aref=0) (surviving fraction x log10(nM)); higher = more resistant", "details": "exposure time: 5 days; dose range 0.5-1000 nM", "procedure,_shortened": "(§1)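 Tumour cell lines in 384-well plates were exposed to eight inhibitor concentrations, from 0.5 to 1000 nM, for five days, and viability was read by CellTiter-Glo luminescence in three screens per line. Signals were normalised to DMSO-only wells, and 3-parameter logistic regression in the drc R package fitted dose-response survival curves to the surviving fractions. Area under the curve is given as the unscaled activity area. That area is taken over log10 dose with Aref = 0.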"}, "DOXORUBICIN [1]": {"compound": "T1, COc1cccc2c1C(=O)c1c(O)c3c(c(O)c1C2=O)C[C@@](O)(C(=O)CO)C[C@@H]3O[C@H]1C[C@H](N)[C@H](O)[C@H](C)O1 [DOXORUBICIN]", "assay": "area under dose-response curve of surviving fraction (unscaled, Aref=0) (surviving fraction x log10(nM)); higher = more resistant", "details": "exposure time: 5 days; dose range 0.5-1000 nM", "procedure,_shortened": "as §1"}, "NUTLIN3": {"compound": "COc1ccc(C2=N[C@@H](c3ccc(Cl)cc3)[C@@H](c3ccc(Cl)cc3)N2C(=O)N2CCNC(=O)C2)c(OC(C)C)c1 [NUTLIN3]", "assay": "area under dose-response curve of surviving fraction (unscaled, Aref=0) (surviving fraction x log10(nM)); higher = more resistant", "details": "exposure time: 5 days; dose range 0.5-1000 nM", "procedure,_shortened": "as §1"}, "VISMODEGIB": {"compound": "CS(=O)(=O)c1ccc(C(=O)Nc2ccc(Cl)c(-c3ccccn3)c2)c(Cl)c1 [VISMODEGIB]", "assay": "area under dose-response curve of surviving fraction (unscaled, Aref=0) (surviving fraction x log10(nM)); higher = more resistant", "details": "exposure time: 5 days; dose range 0.5-1000 nM", "procedure,_shortened": "as §1"}, "SALINOMYCIN": {"compound": "CC[C@@H](C(=O)[C@@H](C)[C@@H](O)[C@H](C)[C@@H]1O[C@@H]([C@@H](CC)C(=O)O)CC[C@@H]1C)[C@H]1O[C@]2(C=C[C@@H](O)[C@]3(CC[C@@](C)([C@H]4CC[C@](O)(CC)[C@H](C)O4)O3)O2)[C@H](C)C[C@@H]1C [SALINOMYCIN]", "assay": "surviving fraction relative to DMSO-only wells; higher = less growth inhibition", "details": "exposure time: 5 days", "procedure,_shortened": "(§2)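 For each tumour cell line, log-phase cells were put into 384-well plates at 250–500 cells per well, then after 24 hours exposed continuously for five days to inhibitors at 0.5, 1, 5, 10, 50, 100, 500 and 1000 nM. Viability was assessed by CellTiter-Glo luminescence, with surviving fraction expressed relative to the median of DMSO-only wells. Lines were screened three times and retained only if replicate Pearson r exceeded 0.7 and median Z' exceeded 0.3.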"}, "DOXORUBICIN [2]": {"compound": "T1, DOXORUBICIN", "assay": "surviving fraction relative to DMSO-only wells; higher = less growth inhibition", "details": "exposure time: 5 days", "procedure,_shortened": "as §2"}},
  "note": "± gives the standard deviation of the averaged measurements.",
  "data": [
    {"test system": "G292 BONE", "values": [
      {"measurement": "area under dose-response curve", "setting": "17-AAG", "value": 1.84},
      {"measurement": "area under dose-response curve", "setting": "DOXORUBICIN [1]", "value": 1.77},
      {"measurement": "area under dose-response curve", "setting": "NUTLIN3", "value": 3.34},
      {"measurement": "area under dose-response curve", "setting": "VISMODEGIB", "value": 3.2},
      {"measurement": "surviving fraction", "setting": "SALINOMYCIN; 0.5 nM", "value": "0.971 ± 0.016"},
      {"measurement": "surviving fraction", "setting": "SALINOMYCIN; 1 nM", "value": "0.967 ± 0.055"},
      {"measurement": "surviving fraction", "setting": "SALINOMYCIN; 5 nM", "value": "1 ± 0.086"},
      {"measurement": "surviving fraction", "setting": "SALINOMYCIN; 10 nM", "value": "0.966 ± 0.046"},
      {"measurement": "surviving fraction", "setting": "SALINOMYCIN; 50 nM", "value": "0.932 ± 0.017"},
      {"measurement": "surviving fraction", "setting": "SALINOMYCIN; 100 nM", "value": "0.828 ± 0.013"},
      {"measurement": "surviving fraction", "setting": "SALINOMYCIN; 500 nM", "value": "0.204 ± 0.011"},
      {"measurement": "surviving fraction", "setting": "SALINOMYCIN; 1000 nM", "value": "0.146 ± 0.0081"},
      {"measurement": "surviving fraction", "setting": "DOXORUBICIN [2]; 0.5 nM", "value": "1.03 ± 0.065"},
      {"measurement": "surviving fraction", "setting": "DOXORUBICIN [2]; 1 nM", "value": "1 ± 0.037"},
      {"measurement": "surviving fraction", "setting": "DOXORUBICIN [2]; 5 nM", "value": "0.816 ± 0.052"},
      {"measurement": "surviving fraction", "setting": "DOXORUBICIN [2]; 10 nM", "value": "0.601 ± 0.059"},
      {"measurement": "surviving fraction", "setting": "DOXORUBICIN [2]; 50 nM", "value": "0.388 ± 0.031"},
      {"measurement": "surviving fraction", "setting": "DOXORUBICIN [2]; 100 nM", "value": "0.338 ± 0.0043"},
      {"measurement": "surviving fraction", "setting": "DOXORUBICIN [2]; 500 nM", "value": "0.108 ± 0.006"},
      {"measurement": "surviving fraction", "setting": "DOXORUBICIN [2]; 1000 nM", "value": "0.0887 ± 0.0033"}
    ]},
    {"test system": "HCC38 BREAST", "values": [
      {"measurement": "area under dose-response curve", "setting": "17-AAG", "value": 0.903},
      {"measurement": "area under dose-response curve", "setting": "DOXORUBICIN [1]", "value": 1.77},
      {"measurement": "area under dose-response curve", "setting": "NUTLIN3", "value": 4.18},
      {"measurement": "area under dose-response curve", "setting": "VISMODEGIB", "value": 2.67},
      {"measurement": "surviving fraction", "setting": "SALINOMYCIN; 0.5 nM", "value": "1.26 ± 0.26"},
      {"measurement": "surviving fraction", "setting": "SALINOMYCIN; 1 nM", "value": "1.14 ± 0.15"},
      {"measurement": "surviving fraction", "setting": "SALINOMYCIN; 5 nM", "value": "1.3 ± 0.19"},
      {"measurement": "surviving fraction", "setting": "SALINOMYCIN; 10 nM", "value": "1.26 ± 0.081"},
      {"measurement": "surviving fraction", "setting": "SALINOMYCIN; 50 nM", "value": "1.05 ± 0.14"},
      {"measurement": "surviving fraction", "setting": "SALINOMYCIN; 100 nM", "value": "0.862 ± 0.2"},
      {"measurement": "surviving fraction", "setting": "SALINOMYCIN; 500 nM", "value": "0.415 ± 0.03"},
      {"measurement": "surviving fraction", "setting": "SALINOMYCIN; 1000 nM", "value": "0.317 ± 0.052"},
      {"measurement": "surviving fraction", "setting": "DOXORUBICIN [2]; 0.5 nM", "value": "1.23 ± 0.28"},
      {"measurement": "surviving fraction", "setting": "DOXORUBICIN [2]; 1 nM", "value": "1.19 ± 0.18"},
      {"measurement": "surviving fraction", "setting": "DOXORUBICIN [2]; 5 nM", "value": "1.1 ± 0.23"},
      {"measurement": "surviving fraction", "setting": "DOXORUBICIN [2]; 10 nM", "value": "0.759 ± 0.14"},
      {"measurement": "surviving fraction", "setting": "DOXORUBICIN [2]; 50 nM", "value": "0.301 ± 0.034"},
      {"measurement": "surviving fraction", "setting": "DOXORUBICIN [2]; 100 nM", "value": "0.0897 ± 0.0085"},
      {"measurement": "surviving fraction", "setting": "DOXORUBICIN [2]; 500 nM", "value": "0.0433 ± 0.0025"},
      {"measurement": "surviving fraction", "setting": "DOXORUBICIN [2]; 1000 nM", "value": "0.044 ± 0.0079"}
    ]},
    {"test system": "HCC70 BREAST", "values": [
      {"measurement": "area under dose-response curve", "setting": "17-AAG", "value": 1.53},
      {"measurement": "area under dose-response curve", "setting": "DOXORUBICIN [1]", "value": 2.04},
      {"measurement": "area under dose-response curve", "setting": "NUTLIN3", "value": 3.49},
      {"measurement": "area under dose-response curve", "setting": "VISMODEGIB", "value": 3.57},
      {"measurement": "surviving fraction", "setting": "SALINOMYCIN; 0.5 nM", "value": "0.915 ± 0.055"},
      {"measurement": "surviving fraction", "setting": "SALINOMYCIN; 1 nM", "value": "1.011 ± 0.0081"},
      {"measurement": "surviving fraction", "setting": "SALINOMYCIN; 5 nM", "value": "1.02 ± 0.035"},
      {"measurement": "surviving fraction", "setting": "SALINOMYCIN; 10 nM", "value": "0.973 ± 0.022"},
      {"measurement": "surviving fraction", "setting": "SALINOMYCIN; 50 nM", "value": "0.948 ± 0.11"},
      {"measurement": "surviving fraction", "setting": "SALINOMYCIN; 100 nM", "value": "0.671 ± 0.061"},
      {"measurement": "surviving fraction", "setting": "SALINOMYCIN; 500 nM", "value": "0.251 ± 0.011"},
      {"measurement": "surviving fraction", "setting": "SALINOMYCIN; 1000 nM", "value": "0.147 ± 0.015"},
      {"measurement": "surviving fraction", "setting": "DOXORUBICIN [2]; 0.5 nM", "value": "0.966 ± 0.06"},
      {"measurement": "surviving fraction", "setting": "DOXORUBICIN [2]; 1 nM", "value": "0.939 ± 0.021"},
      {"measurement": "surviving fraction", "setting": "DOXORUBICIN [2]; 5 nM", "value": "0.986 ± 0.15"},
      {"measurement": "surviving fraction", "setting": "DOXORUBICIN [2]; 10 nM", "value": "0.9 ± 0.13"},
      {"measurement": "surviving fraction", "setting": "DOXORUBICIN [2]; 50 nM", "value": "0.33 ± 0.013"},
      {"measurement": "surviving fraction", "setting": "DOXORUBICIN [2]; 100 nM", "value": "0.489 ± 0.045"},
      {"measurement": "surviving fraction", "setting": "DOXORUBICIN [2]; 500 nM", "value": "0.15 ± 0.022"},
      {"measurement": "surviving fraction", "setting": "DOXORUBICIN [2]; 1000 nM", "value": "0.0553 ± 0.017"}
    ]}
  ]
}
